From patent US20070232528A1, “Formulation comprising histone deacetylase inhibitors” (priority 2004, published 2007)
“And” between values parts separate entries of the source, which are not always exact repeats. Equal values may be shown once. Read-outs that look alike come from different tables or passages of the source.

Key:
[1] = biological target: T1, HDAC class I (Homo sapiens, UniProt Q13547); assay: in vitro HDAC assay, IC50 stated for the enzyme class; format: biochemical; conditions: class I enzyme inhibition
T1 construct: made in house; host or cells: High5 insect cells
Source text: (§1) IC50 values may be calculated from dose-response curves. […] Biochem J. Aug. 15, 2000;350 Pt 1:199-205.

[2] = tested on: Histone H3 and H4; assay: Western blot of peripheral blood cells of patients, phase I/II trial; format: in vivo, human
Experimental: (§2) Blood samples were taken before and 6 h, 24 h as well as 48 h after treatment start.
(§3) Whole cell extracts were prepared by lysis of cells in RIPA buffer plus protease inhibitors for denaturing SDS gel electrophoresis on a 12% denaturing polyacrylamide gel. Acetylated histones H3 and H4 and marker protein HDAC 2 were detected by Western blot analysis using an anti-acetyl Histone H3 antibody (Upstate, #06-942), an anti-acetyl Histone H4 antibody (clone T25; patent application EP 02.021984.6), and an anti-HDAC 2 antibody (SCBT, SC-7899). As an equal loading control PVDV membranes were stained with Coomassie.

[3] = tested on: HDAC 2; assay: as above; format: in vivo, human; conditions: patients with serum levels above the therapeutic plasma concentration
Experimental: as §2, §3

[4] = tested on: PC-3 cell line; assay: SRB proliferation assay, interval treatment; format: cell-based; conditions: Homo sapiens, read-out: growth inhibition
Experimental: (§4) SRB proliferation assay: The reduction in cellular biomass was measured by SRB-assay. For this assay cells were seeded in 96 well culture dishes at densities between 3000 and 8000 cells per well. […] Cells were fixed with cold Trichloracetat (TCA) producing a final TCA concentration of 10%. After 1 hour of incubation at 4° C. the cells were washed five times with water and air dried. Fixed cells were stained for 30 minutes with 0.4% (wt/vol) Sulforhodamine B (SRB) dissolved in 1% acetic acid and washed four times with 1% acetic acid to remove unbound dye. After air drying bound dye was solubilized with 10 mM unbuffered Tris base (pH 10.5) for 5 minutes. Optical densities (OD) were read on a Molecular Devices Versa Max tunable microplate reader at 520-550 nm. Four test wells for each dose-response were set in parallel with 12 control wells per cell line. Measurement of the cell population density at time 0 (T0; the time at which the drug was added) was also made from 12 reference wells of cells fixed with TCA just prior to drug addition to the test plates. Background OD of complete medium with 5% FBS fixed and stained as described above was also determined in 12 separate wells. From the unprocessed OD data from each microtiter plate the background OD measurements (i.e. OD of complete medium plus stain and OD of cells at T0) were subtracted thus giving the reduction of cellular biomass of the cells.

[5] = tested on: Colo320DM cell line; assay: SRB proliferation assay, interval treatment; format: cell-based; conditions: Homo sapiens, COLO 320DM, 1 mM VPA, read-out: growth inhibition
Experimental: as §4

[6] = tested on: PC3 prostate carcinoma cells; assay: PC-3 mouse xenograft model; format: in vivo
Experimental: 24 athymic Nu/Nu^−/− mice were injected with 1×10^6 PC3 prostate carcinoma cells in 100 μl PBS into the right flank (8 animals per group). Tumors were allowed to grow for 4 days. Animals were treated with PBS (control), 2×200 mg/kg/d or 2×400 mg/kg/d, respectively, from day 5 until day 21. Tumor volumes were measured every 3-4 days.
Mouse Xenograft Model: 24 athymic Nu/Nu^−/− (Harlan) mice were injected with 1×10^6 PC3 prostate carcinoma cells in 100 μl PBS into the right flank (8 animals per group). Tumors were allowed to grow for 4 days. […] Tumor volumes were measured every […].

[7] = biological target: HDAC 8 (Homo sapiens); assay: biochemical
Source text: (§5) in vitro HDAC assay for determination of IC50 values: The determination of histone deacetylase activity in recombinant HDAC proteins derived from expression in High5 insect cells is based on the specific deacetylation of an artificial substrate (Fluor de Lys, Biomol). The substrate turn over may be detected and quantified by fluorometry. By addition of a HDAC inhibitor the hydrolysis of the substrate is constrained resulting in a decreased fluorometric signal. IC50 values may be calculated from dose-response curves. The assay is separated in two steps: in the first step the substrate (Fluor de Lys/Biomol KI-104) is hydrolysed by histone deacetylases. In step two HDAC activity is terminated and the fluorophore is activated by the addition of a developer (Developer/Biomol KI-105). […] 25 μl substrate (1:100 dilution in reaction buffer) per well are added to start the reaction. A negative control without histone deacetylase activity and a positive control without HDAC inhibitor are treated likewise. The reaction is stopped after 15-60 min. by adding 50 μl developer (1:20 dilution in reaction buffer). After another 15 min. incubation time at room temperature the fluorescence signal is stable for 60 min and may be detected by a fluorescence reader (excitation filter: 390 nm, emission filter: 460 nm). […]

[8] = biological target: HDAC 6 (Homo sapiens, UniProt Q9UBN7); assay: biochemical
Source text: as §5

[9] = tested on: Histone H3 in 293T cells; assay: Western blot of 293T cells treated by release-pattern schemes; format: cell-based
Experimental: Whole cell extracts were prepared by lysis of cells in RIPA buffer plus protease inhibitors for denaturing SDS gel electrophoresis on a 12% denaturing polyacrylamide gel. Acetylated histones H3 were detected by Western blot analysis using an anti-acetylated H3 antibody (Upstate, #06-942).

[10] = biological target: T2, HDAC 1 (Homo sapiens, UniProt Q13547); assay: in vitro HDAC assay with recombinant HDAC proteins (Fluor de Lys substrate); format: biochemical; conditions: recombinant protein purified from High 5 insect cells; read-out: IC50 for HDAC 1 (class I)
T2 construct: made in house; host or cells: High5 insect cells
Source text: as §1

T2 sequence (Q13547 whole entry): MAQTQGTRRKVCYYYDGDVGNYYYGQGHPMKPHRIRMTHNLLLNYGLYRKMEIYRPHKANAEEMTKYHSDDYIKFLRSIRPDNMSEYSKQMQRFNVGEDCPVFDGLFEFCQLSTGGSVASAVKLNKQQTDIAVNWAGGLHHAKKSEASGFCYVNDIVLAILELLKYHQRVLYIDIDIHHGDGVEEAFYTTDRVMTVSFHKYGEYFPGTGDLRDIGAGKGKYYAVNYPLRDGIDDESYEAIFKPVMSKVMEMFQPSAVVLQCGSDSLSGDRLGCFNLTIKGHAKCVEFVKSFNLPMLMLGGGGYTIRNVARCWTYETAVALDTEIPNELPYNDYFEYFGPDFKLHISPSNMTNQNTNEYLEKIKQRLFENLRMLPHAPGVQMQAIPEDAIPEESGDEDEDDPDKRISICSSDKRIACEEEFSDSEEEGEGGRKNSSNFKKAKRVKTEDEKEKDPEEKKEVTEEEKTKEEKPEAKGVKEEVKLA
T1 sequence (Q13547 whole entry): as above
HDAC 8 (Homo sapiens), sequence (Q9UBN7 whole entry): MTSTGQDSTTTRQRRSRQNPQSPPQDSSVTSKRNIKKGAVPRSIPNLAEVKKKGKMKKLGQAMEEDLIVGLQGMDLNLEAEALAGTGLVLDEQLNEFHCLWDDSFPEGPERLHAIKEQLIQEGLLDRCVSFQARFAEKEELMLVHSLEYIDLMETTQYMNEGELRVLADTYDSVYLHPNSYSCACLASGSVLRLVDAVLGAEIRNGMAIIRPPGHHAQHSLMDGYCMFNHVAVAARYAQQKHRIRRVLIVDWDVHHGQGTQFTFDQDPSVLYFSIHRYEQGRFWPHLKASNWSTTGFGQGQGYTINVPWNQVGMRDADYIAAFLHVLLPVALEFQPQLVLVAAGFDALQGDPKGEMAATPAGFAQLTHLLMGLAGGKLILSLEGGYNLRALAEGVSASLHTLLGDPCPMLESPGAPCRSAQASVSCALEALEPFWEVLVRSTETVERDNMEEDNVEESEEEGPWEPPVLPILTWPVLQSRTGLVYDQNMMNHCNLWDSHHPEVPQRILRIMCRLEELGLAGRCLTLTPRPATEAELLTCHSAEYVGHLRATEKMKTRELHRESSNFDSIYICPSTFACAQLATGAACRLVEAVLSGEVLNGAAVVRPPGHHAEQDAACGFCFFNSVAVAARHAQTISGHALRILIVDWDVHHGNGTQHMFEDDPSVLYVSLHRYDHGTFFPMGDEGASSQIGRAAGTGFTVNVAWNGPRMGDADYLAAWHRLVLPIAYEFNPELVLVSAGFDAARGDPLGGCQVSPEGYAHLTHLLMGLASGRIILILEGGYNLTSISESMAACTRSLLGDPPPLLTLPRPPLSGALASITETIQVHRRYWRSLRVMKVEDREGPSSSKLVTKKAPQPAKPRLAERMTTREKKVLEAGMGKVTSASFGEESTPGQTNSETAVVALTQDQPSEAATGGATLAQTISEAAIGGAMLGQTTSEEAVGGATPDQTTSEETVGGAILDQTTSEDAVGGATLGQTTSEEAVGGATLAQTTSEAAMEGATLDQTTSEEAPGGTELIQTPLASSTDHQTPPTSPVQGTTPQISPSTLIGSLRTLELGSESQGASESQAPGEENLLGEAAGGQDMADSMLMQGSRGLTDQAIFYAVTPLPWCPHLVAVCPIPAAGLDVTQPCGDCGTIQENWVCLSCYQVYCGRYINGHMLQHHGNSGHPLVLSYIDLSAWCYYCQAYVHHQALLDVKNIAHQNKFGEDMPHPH
HDAC 6, sequence (Q9UBN7 whole entry): as above

IC50 [1]: ~200 µM and 200 µM | IC50 [7]: ~1100 µM | IC50 [8]: 1100 µM | IC50 [10]: 200 µM and ~200 µM
SMILES: CCCC(CCC)C(=O)O [VPA, 2-propyl-pentanoic acid]
correlation of VPA serum peak levels with induction of histone hyperacetylation ([2]; peripheral blood cells before and 6 h, 24 h, 48 h after treatment start, intravenous VPA): clear correlation | histone H3 and H4 hyperacetylation ([2]; peripheral blood cells, patients with serum levels above the therapeutic plasma concentration): could be detected | regulation of the marker protein HDAC 2 [3]: down regulation | inhibition at 1000 µM ([4]; PC-3, 66 h, PC3, 1 mM VPA, continuous exposure 66 h): 57% | inhibition at 1000 µM ([4]; PC-3, PC3, 1 mM VPA, 2×8 hours exposure, 40 h treatment free interval ("8 h d")): 26% | inhibition at 1000 µM ([4]; PC-3, PC3, 1 mM VPA, 2×20 hours exposure, 26 h treatment free interval ("20 h d")): 43% | inhibition at 1000 µM ([5]; 2×8 hours exposure, 40 h treatment free interval ("8 h d")): 27% | inhibition at 1000 µM ([5]; 2×20 hours exposure, 26 h treatment free interval ("20 h d")): 57% | inhibition at 1000 µM ([5]; 66 h, continuous exposure 66 h): 80% | anti-tumoral effect ([6]; 200 mg/kg/d twice daily, day 5 until day 21): no anti-tumoral effect | PC-3 tumor volume reduction ([6]; 400 mg/kg/d twice daily, day 5 until day 21, compared to PBS control): > 25% | degree of histone hyperacetylation ([9]; VPA above IC50 for class I HDAC, exposure 6 h, 15 h, 24 h): strongly enhanced when the period of exposure is prolonged | degree of histone hyperacetylation induction, "fast release" or "slow release" exposure each on their own compared with bi-phasic PEAC exposure ([9]; Western blot): less effective
